Data from ChEMBL document CHEMBL1126383, “P-3A and ()-desacetamido P-3A: demonstration and Study of their effective functional cleavage of duplex DNA” (Bioorg Med Chem Lett, 1992).
The source made the active and inactive calls. The calls are words filed in the database; no cut-off is given here.

What was measured:
Format in all cases: functional
Nucleic Acid [1] = assay: Relative efficiency of supercoiled phi X174 DNA cleavage was determined
Nucleic Acid [2] = assay: DNA cleavage selectivity selected within singly 5' -end labeled w794 DNA was determined; N - None
Nucleic Acid [3] = assay: Relative efficiency of supercoiled phi X174 DNA cleavage was determined; 4-10
Nucleic Acid [4] = assay: Relative efficiency of supercoiled phi X174 DNA cleavage was determined; 1.25-2
Nucleic Acid [5] = assay: Relative efficiency of supercoiled phi X174 DNA cleavage was determined; 0.33-0.2

`C[C@H](NC(=O)C(Cc1c[nH]cn1)NC(=O)c1cc(N)nc(C(CC(N)=O)NC[C@H](N)C(N)=O)n1)C(=O)O` (stereo partly specified) was tested, and the Relative efficiency (Nucleic Acid [1]) was 1 and the Selectivity (Nucleic Acid [2]) was “inactive”.
With `Cc1c(N)nc([C@H](CC(N)=O)NC[C@H](N)C(N)=O)nc1C(=O)N[C@H](C(=O)N[C@H](C)[C@@H](O)[C@H](C)C(=O)N[C@H](C(=O)NCCc1nc(-c2nc(C(=O)NCCC[S+](C)C)cs2)cs1)[C@@H](C)O)[C@@H](O[C@@H]1O[C@@H](CO)[C@@H](O)[C@H](O)[C@@H]1O[C@H]1O[C@H](CO)[C@@H](O)[C@H](OC(N)=O)[C@@H]1O)c1c[nH]cn1` the Relative efficiency (Nucleic Acid [3]) was 4.
`Cc1c(N)nc(C(CC(N)=O)NC[C@H](N)C(N)=O)nc1C(=O)NC(C(=O)NC(C)C(O)[C@H](C)C(=O)NC(C(=O)NCCc1nc(-c2nc(C(=O)NCCC[S+](C)C)cs2)cs1)C(C)O)C(O)c1c[nH]cn1` (stereo partly specified) gave a Relative efficiency (Nucleic Acid [4]) of 1.25.
With `C[C@H](NC(=O)C(Cc1c[nH]cn1)NC(=O)c1cc(N)nc(CNC[C@H](N)C(N)=O)n1)C(=O)O` (stereo partly specified) the Relative efficiency (Nucleic Acid [5]) was 0.2 and the Selectivity (Nucleic Acid [2]) was “inactive”.
